Data: the NIST ThermoML archive (doi:10.1021/je049612f)

Conditions: Gas, Vibrating wire viscometry

FS(F)(F)(F)(F)F [sulfur hexafluoride]
Conditions | viscosity [mPa·s]
300 K, 26.36 kPa | 0.01529
300 K, 50.94 kPa | 0.01531
300 K, 73.62 kPa | 0.01532
300 K, 105.89 kPa | 0.01532
300 K, 125.7 kPa | 0.01533
300 K, 152.62 kPa | 0.01533
300 K, 177.62 kPa | 0.01533
300 K, 195.25 kPa | 0.01534
300 K, 227.52 kPa | 0.01534
300 K, 251.51 kPa | 0.01535
300 K, 278.58 kPa | 0.01535
300 K, 301.45 kPa | 0.01535
300 K, 327.3 kPa | 0.01536
300 K, 353.41 kPa | 0.01536
300 K, 378.55 kPa | 0.01537
300 K, 401.57 kPa | 0.01537
300 K, 425.72 kPa | 0.01538
300 K, 444.52 kPa | 0.01538
300 K, 471.71 kPa | 0.01539
300 K, 491.53 kPa | 0.0154
300 K, 538.31 kPa | 0.01541
300 K, 565.24 kPa | 0.01542
300 K, 597.98 kPa | 0.01543
300 K, 634.58 kPa | 0.01544
300 K, 665.1 kPa | 0.01545
300 K, 700.96 kPa | 0.01546
300 K, 731.45 kPa | 0.01547
300 K, 763.98 kPa | 0.01548
300 K, 800.2 kPa | 0.01549
300 K, 835.89 kPa | 0.01551
300 K, 869.95 kPa | 0.01553
300 K, 898.41 kPa | 0.01554
300 K, 930.75 kPa | 0.01556
300 K, 968.74 kPa | 0.01558
300 K, 997.76 kPa | 0.01559
300 K, 1036.4 kPa | 0.01561
300 K, 1090.2 kPa | 0.01565
300 K, 1140.1 kPa | 0.01568
300 K, 1181.5 kPa | 0.0157
300 K, 1223.6 kPa | 0.01574
300 K, 1280.6 kPa | 0.01578
300 K, 1333.3 kPa | 0.01582
300 K, 1380.9 kPa | 0.01586
300 K, 1417.9 kPa | 0.01589
300 K, 1493.3 kPa | 0.01596
300 K, 1537.7 kPa | 0.016
300 K, 1594.6 kPa | 0.01606
300 K, 1637.3 kPa | 0.01611
300 K, 1680.6 kPa | 0.01616
300 K, 1735.3 kPa | 0.01622
300 K, 1784.4 kPa | 0.01629
300 K, 1826.5 kPa | 0.01635
300 K, 1865.1 kPa | 0.01641
300 K, 1927.3 kPa | 0.0165
300 K, 1980 kPa | 0.01659
300 K, 2039.3 kPa | 0.0167
316 K, 112.75 kPa | 0.01605
316 K, 143.54 kPa | 0.01605
316 K, 174.6 kPa | 0.01606
316 K, 197.59 kPa | 0.01606
316 K, 218.05 kPa | 0.01607
316 K, 245.03 kPa | 0.01607
316 K, 262.84 kPa | 0.01607
316 K, 287.46 kPa | 0.01608
316 K, 307.35 kPa | 0.01608
316 K, 332.06 kPa | 0.01609
316 K, 357.7 kPa | 0.0161
316 K, 383.76 kPa | 0.0161
316 K, 402.43 kPa | 0.01611
316 K, 428.01 kPa | 0.01611
316 K, 468.39 kPa | 0.01613
316 K, 490.91 kPa | 0.01613
316 K, 519.48 kPa | 0.01614
316 K, 548.34 kPa | 0.01615
316 K, 585.01 kPa | 0.01616
316 K, 614.48 kPa | 0.01617
316 K, 650.85 kPa | 0.01618
316 K, 685.07 kPa | 0.0162
316 K, 712.63 kPa | 0.0162
316 K, 749.05 kPa | 0.01622
316 K, 780.4 kPa | 0.01623
316 K, 810.74 kPa | 0.01624
316 K, 843.2 kPa | 0.01626
316 K, 882.81 kPa | 0.01628
